Assay type in all cases: in vivo, human
Data set [1] in a line: Phase 1 SAD/MAD clinical study in healthy volunteers: safety and tolerability. From the text: (§1) This is a study of the safety, tolerability, pharmacokinetics (PK) and pharmacodynamics (PD) of Compound 1 from a Phase 1, single ascending dose (SAD) and multiple ascending dose (MAD) clinical study.
(§2) Healthy volunteers received oral placebo vs. single oral doses of Compound 1 in the SAD cohorts, or oral placebo vs. single oral doses of Compound 1 once daily (QD) for 14 consecutive days in the MAD cohorts. Safety assessments included AEs, vital signs, ECGs, and laboratory parameters. PK/PD blood sampling was performed pre-dose and Days 1 and 2 in the SAD cohorts, and Days 1, 2, 7, 8 and 12-15 in the MAD cohorts. Target engagement was assessed as change from baseline in H3K27me3/Total Histone H3 ratio. PD assessments included changes in F reticulocytes and HBG mRNA.
(§3) Compound 1 was evaluated in […] healthy volunteer (HV) SAD cohorts (2 to 60 mg), […] HV MAD cohorts (2 to 30 mg QD, 14-day dosing). SAD dose cohorts include 2 mg, 4 mg, 6 mg, 10 mg, 20 mg, 30 mg, 40 mg, and 60 mg Compound 1. MAD dose cohorts include 2 mg, 4 mg, 6 mg, 10 mg, 20 mg, and 30 mg Compound 1.

Data set [2] is described as follows: Phase 1 SAD/MAD clinical study in healthy volunteers: pharmacokinetics. The settings on record: oral, across all doses.
Excerpt: as §1, §2, §3

For data set [3], the system named is H3K27me3/Total Histone H3 ratio. Kind of data set: Phase 1 SAD/MAD study: target engagement (change from baseline in H3K27me3/Total Histone H3 ratio). The settings on record: healthy volunteers; across the entire dose range. The protocol: as §2
Data set [4] deals with HBG mRNA. The data set is described as follows: Phase 1 MAD study: HBG mRNA induction. The protocol:
as §2
Safety Follow-up (SFU) samples were collected 7-10 days post 14-day treatment period.
(§4) Data in FIG. 1 and FIG. 2 are presented as geometric LS mean ratios (to placebo) with a 95% confidence interval. Mixed-effects model for repeated measures (MMRM) analysis was performed for Day 7 and Day 14 measurements. An analysis of covariance (ANCOVA) was utilized for SFU data. In FIG. 1 and FIG. 2, “PBO” is placebo.

Data set [5] relates to F-reticulocytes. Kind of data set: Phase 1 MAD study: F-reticulocytes. The settings on record: safety follow-up (SFU) visits 7-10 days post 14-day treatment; dosed at ≥6 mg. As for the experimental part:
as §2
Increases in F-cells and HbF protein are projected with longer treatment duration.
as §4

For data set [6], the system named is fetal hemoglobin (HbF). The data set is described as follows: Phase 1 open-label multiple-dose study in subjects with sickle cell disease: HbF induction by HPLC. From the text:
(§5) This is a Phase 1 multicenter, open-label study evaluating the safety, tolerability, pharmacokinetics (PK), fetal hemoglobin (HbF) induction and biological activity of Compound 1 in subjects 18-65 years of age with sickle cell disease (SCD). This study comprises 2 parts and is being conducted in subjects 18-65 years of age with sickle cell disease (SCD) either taking hydroxyurea (HU) at a stable dose for at least the preceding 3 months, or not taking hydroxyurea (HU).
(§6) The study consists of two phases. In Part A, Cohort 1 received 6 mg of Compound 1 by mouth once daily for 4 weeks, Cohort 2 received 2 mg of Compound 1 by mouth once daily for 4 weeks, and Cohort 3 received 12 mg of Compound 1 by mouth once daily for 4 weeks. An additional cohort may receive up to and including 20 mg of Compound 1 by mouth once daily for 4 weeks depending on the Data Monitoring Committee [DMC] review. Additional cohorts (up to five total cohorts) may be added based on the safety and pharmacokinetic data observed in subjects from the prior and ongoing cohorts. Up to 10 subjects have been or will be enrolled in each treatment arm.
Part B is the extension study. Eligible subjects who consent to continue in the extension study continue on treatment at the same dose level selected in Part A for an additional 8 weeks. Subjects who decline to participate in the extension study are followed for an additional 2-3 weeks.
The primary endpoints of the study are to evaluate the safety and tolerability of Compound 1 as measured by the frequency of adverse events and to evaluate single and multiple-dose pharmacokinetics of Compound 1 in subjects with sickle cell disease. Secondary endpoints include evaluating the effect of Compound 1 on fetal hemoglobin induction in peripheral blood, as well as changes from baseline in reticulocytes, in subjects with sickle cell disease. Exploratory endpoints include biomarkers of hemolysis, target engagement, incidence of vaso-occlusive crises (VOCs), and quality of life (QOL) measurements.

Data set [7] can be described thus: Phase 1 open-label multiple-dose study in subjects with sickle cell disease: safety and tolerability. The settings on record: oral once daily.
Excerpt: as §5, §6
Part B is the extension study. […]
(§7) The primary endpoints of the study are to evaluate the safety and tolerability of Compound 1 as measured by the frequency of adverse events and to evaluate single and multiple-dose pharmacokinetics of Compound 1 in subjects with sickle cell disease. […]

In data set [8] the test system is red blood cells. Kind of data set: Phase 1 open-label study in subjects with sickle cell disease: hemolysis and anemia markers (RDW, reticulocytes, total hemoglobin). The note with it: SCD Cohort 1, 6 mg once daily.
Excerpt: as §5, §6, §7

The mark [9] stands for this setting: SAD 2 to 60 mg, MAD 2 to 30 mg QD 14-day oral dosing.

With `Cc1ncccc1-c1cc2c(n3cnnc13)NCc1c(F)ccc3c1[C@H](CO3)CO2` [Compound 1], in data set [1] (setting [9]), the SAEs or discontinuations result is given as “no SAEs or discontinuations” and the Treatment-related adverse events entry is given as “mild (Grade 1 or 2)”. In addition, in data set [1] (SAD and MAD cohorts), the “Tolerability / safety signals” value is “generally well tolerated and no unexpected safety signals were detected”. Further, the PK profiles result in data set [2] is “dose proportionality across all doses”. The Target engagement result in data set [3] is on record as “Robust target engagement”. In addition, the “HBG mRNA induction dependence” value in data set [4] (MAD cohorts, FIG. 1) was “both time- and dose-dependent”. Further, in data set [4] (healthy volunteers, 6-30 mg MAD cohorts, QD 14 days oral), the “placebo-adjusted increases from baseline in HBG mRNA” value is recorded as 2.4-6.2 fold. In data set [5], the “mean fold increase in F-reticulocytes” value was 1.7-3.9 fold. Also, the “response differences in HU versus non-HU treated subjects” value in data set [6] (SCD Cohort 1, 6 mg once daily, Subjects 7 and 8) was “no apparent response differences”. The HbF increase in data set [6] (SCD Cohort 1, 6 mg orally once daily, Subjects 7 and 8 (with and without HU), day 84) was 6.8%-9.5%. Besides, in data set [6] (SCD Cohorts 1 and 2 (6 mg and 2 mg orally once daily)), the “HbF response across doses” value was “dose-dependent, clinically relevant and consistent increase in HbF”. Moreover, the “absolute HbF increases from baseline” value in data set [6] (SCD, a subject in the 12 mg dose cohort (Cohort 3), after 42 days of treatment) is reported as “up to 10.0%”. In data set [7], the Tolerability entry is on record as “generally well tolerated”. Moreover, the “absolute reticulocyte count and total hemoglobin” value in data set [8] is “reductions in reticulocytes and increases in total hemoglobin”. In addition, the “red cell distribution width (RDW)” value in data set [8] (Subjects 7 and 8) was “reductions in RDW”.

For the origin of these results see US20250213543A1, “AN EMBRYONIC ECTODERM DEVELOPMENT INHIBITOR FOR THE TREATMENT OF SICKLE CELL DISEASE” (Fulcrum Therapeutics, Inc., priority 2022, published 2025).
